Test results taken from the supplement of paper PMC10883282.
± gives the standard deviation of the averaged measurements.

How the values were obtained:
Assay in all cases: relative viability vs DMSO control (72 h) (fraction); higher = more viable cells
SYO-1 = test system: SYO-1
Summary of the method: (§1)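 Sarcoma cell lines were plated in 384 wells to reach 80–90% confluence, treated after 24 h with 2.5 µl of serially diluted compound and held 72 h at 37 °C, 5% CO2. Relative viability was taken as percent growth from ATPLite readings, averaged over up to triplicate wells. The values were rescaled so that 1 marks full and 0 marks none.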

RD = test system: RD
Summary of the method: as §1

SW684 = test system: SW684
Summary of the method: as §1

SW872 = test system: SW872
Summary of the method: as §1

HS729 = test system: HS729
Summary of the method: as §1

SW1353 = test system: SW1353
Summary of the method: as §1

KHOS-NP = test system: KHOS-NP
Summary of the method: as §1

G401 = test system: G401
Summary of the method: as §1

HT1080 = test system: HT1080
Summary of the method: as §1

RD-ES = test system: RD-ES
Summary of the method: as §1

SK-LMS-1 = test system: SK-LMS-1
Summary of the method: as §1

KHOS-240S = test system: KHOS-240S
Summary of the method: as §1

O=C(Nc1ccc(OC(F)(F)Cl)cc1)c1cnc(N2CC[C@@H](O)C2)c(-c2cc[nH]n2)c1 [Asciminib]
Conditions | relative viability
G401, 0.00017 µM | 0.949 ± 0.014
G401, 0.00051 µM | 0.921 ± 0.019
G401, 0.00152 µM | 0.928 ± 0.05
G401, 0.00457 µM | 0.967 ± 0.054
G401, 0.01372 µM | 0.961 ± 0.048
G401, 0.04115 µM | 0.981 ± 0.063
G401, 0.1235 µM | 0.981 ± 0.072
G401, 0.3704 µM | 0.99 ± 0.056
G401, 1.111 µM | 0.9822 ± 0.0088
G401, 3.333 µM | 0.909 ± 0.036
G401, 10 µM | 0.831 ± 0.047
HS729, 0.00017 µM | 0.939 ± 0.045
HS729, 0.00051 µM | 0.932 ± 0.018
HS729, 0.00152 µM | 0.93 ± 0.021
HS729, 0.00457 µM | 0.915 ± 0.029
HS729, 0.01372 µM | 0.916 ± 0.021
HS729, 0.04115 µM | 0.893 ± 0.018
HS729, 0.1235 µM | 0.928 ± 0.02
HS729, 0.3704 µM | 0.901 ± 0.036
HS729, 1.111 µM | 0.903 ± 0.06
HS729, 3.333 µM | 0.954 ± 0.049
HS729, 10 µM | 0.829 ± 0.044
HT1080, 0.00017 µM | 0.999 ± 0.039
HT1080, 0.00051 µM | 1.06 ± 0.032
HT1080, 0.00152 µM | 1 ± 0.045
HT1080, 0.00457 µM | 0.999 ± 0.015
HT1080, 0.01372 µM | 0.968 ± 0.047
HT1080, 0.04115 µM | 1 ± 0.014
HT1080, 0.1235 µM | 1.03 ± 0.038
HT1080, 0.3704 µM | 1 ± 0.046
HT1080, 1.111 µM | 0.998 ± 0.018
HT1080, 3.333 µM | 0.978 ± 0.036
HT1080, 10 µM | 0.916 ± 0.027
KHOS-240S, 0.00017 µM | 1.04 ± 0.021
KHOS-240S, 0.00051 µM | 1.01 ± 0.013
KHOS-240S, 0.00152 µM | 1.02 ± 0.026
KHOS-240S, 0.00457 µM | 1.02 ± 0.02
KHOS-240S, 0.01372 µM | 1.03 ± 0.033
KHOS-240S, 0.04115 µM | 1.009 ± 0.0052
KHOS-240S, 0.1235 µM | 0.9965 ± 0.0068
KHOS-240S, 0.3704 µM | 1.04 ± 0.0074
KHOS-240S, 1.111 µM | 1.03 ± 0.042
KHOS-240S, 3.333 µM | 0.977 ± 0.037
KHOS-240S, 10 µM | 0.632 ± 0.052
KHOS-NP, 0.00017 µM | 1.04 ± 0.012
KHOS-NP, 0.00051 µM | 1.06 ± 0.022
KHOS-NP, 0.00152 µM | 1.06 ± 0.013
KHOS-NP, 0.00457 µM | 1.04 ± 0.015
KHOS-NP, 0.01372 µM | 1.061 ± 0.0089
KHOS-NP, 0.04115 µM | 1.04 ± 0.02
KHOS-NP, 0.1235 µM | 1.06 ± 0.011
KHOS-NP, 0.3704 µM | 1.025 ± 0.0076
KHOS-NP, 1.111 µM | 0.998 ± 0.059
KHOS-NP, 3.333 µM | 0.901 ± 0.036
KHOS-NP, 10 µM | 0.695 ± 0.011
RD, 0.00017 µM | 1.05 ± 0.026
RD, 0.00051 µM | 1.049 ± 0.01
RD, 0.00152 µM | 1.067 ± 0.0057
RD, 0.00457 µM | 1.08 ± 0.029
RD, 0.01372 µM | 1.05 ± 0.028
RD, 0.04115 µM | 1.092 ± 0.01
RD, 0.1235 µM | 1.088 ± 0.0041
RD, 0.3704 µM | 1.11 ± 0.022
RD, 1.111 µM | 1.04 ± 0.02
RD, 3.333 µM | 1.07 ± 0.04
RD, 10 µM | 0.984 ± 0.049
RD-ES, 0.00017 µM | 0.944 ± 0.011
RD-ES, 0.00051 µM | 0.942 ± 0.019
RD-ES, 0.00152 µM | 0.927 ± 0.013
RD-ES, 0.00457 µM | 0.926 ± 0.02
RD-ES, 0.01372 µM | 0.908 ± 0.0096
RD-ES, 0.04115 µM | 0.895 ± 0.032
RD-ES, 0.1235 µM | 0.915 ± 0.018
RD-ES, 0.3704 µM | 0.889 ± 0.044
RD-ES, 1.111 µM | 0.852 ± 0.022
RD-ES, 3.333 µM | 0.849 ± 0.038
RD-ES, 10 µM | 0.748 ± 0.039
SK-LMS-1, 0.00017 µM | 0.928 ± 0.004
SK-LMS-1, 0.00051 µM | 0.955 ± 0.059
SK-LMS-1, 0.00152 µM | 0.972 ± 0.052
SK-LMS-1, 0.00457 µM | 0.97 ± 0.025
SK-LMS-1, 0.01372 µM | 1.06 ± 0.028
SK-LMS-1, 0.04115 µM | 1.02 ± 0.021
SK-LMS-1, 0.1235 µM | 1 ± 0.066
SK-LMS-1, 0.3704 µM | 1.05 ± 0.046
SK-LMS-1, 1.111 µM | 1.04 ± 0.08
SK-LMS-1, 3.333 µM | 0.773 ± 0.018
SK-LMS-1, 10 µM | 0.565 ± 0.019
SW684, 0.00017 µM | 1.09 ± 0.05
SW684, 0.00051 µM | 1.06 ± 0.025
SW684, 0.00152 µM | 1.09 ± 0.076
SW684, 0.00457 µM | 1.09 ± 0.026
SW684, 0.01372 µM | 1.08 ± 0.068
SW684, 0.04115 µM | 1.102 ± 0.0092
SW684, 0.1235 µM | 1.16 ± 0.038
SW684, 0.3704 µM | 1.23 ± 0.02
SW684, 1.111 µM | 1.18 ± 0.042
SW684, 3.333 µM | 1.11 ± 0.046
SW684, 10 µM | 0.627 ± 0.017
SW872, 0.00017 µM | 0.966 ± 0.039
SW872, 0.00051 µM | 0.94 ± 0.023
SW872, 0.00152 µM | 0.939 ± 0.028
SW872, 0.00457 µM | 0.938 ± 0.025
SW872, 0.01372 µM | 0.937 ± 0.023
SW872, 0.04115 µM | 0.978 ± 0.029
SW872, 0.1235 µM | 0.9486 ± 0.0027
SW872, 0.3704 µM | 1.01 ± 0.034
SW872, 1.111 µM | 0.991 ± 0.025
SW872, 3.333 µM | 0.974 ± 0.022
SW872, 10 µM | 0.93 ± 0.013
SW1353, 0.00017 µM | 0.946 ± 0.021
SW1353, 0.00051 µM | 0.958 ± 0.011
SW1353, 0.00152 µM | 0.936 ± 0.047
SW1353, 0.00457 µM | 0.9604 ± 0.008
SW1353, 0.01372 µM | 1.04 ± 0.042
SW1353, 0.04115 µM | 1.1 ± 0.028
SW1353, 0.1235 µM | 1.1 ± 0.051
SW1353, 0.3704 µM | 1.14 ± 0.015
SW1353, 1.111 µM | 1.11 ± 0.031
SW1353, 3.333 µM | 1.06 ± 0.027
SW1353, 10 µM | 0.953 ± 0.036
SYO-1, 0.00017 µM | 0.92 ± 0.023
SYO-1, 0.00051 µM | 0.91 ± 0.018
SYO-1, 0.00152 µM | 0.919 ± 0.02
SYO-1, 0.00457 µM | 0.927 ± 0.025
SYO-1, 0.01372 µM | 0.904 ± 0.017
SYO-1, 0.04115 µM | 0.893 ± 0.024
SYO-1, 0.1235 µM | 0.866 ± 0.023
SYO-1, 0.3704 µM | 0.844 ± 0.022
SYO-1, 1.111 µM | 0.813 ± 0.014
SYO-1, 3.333 µM | 0.76 ± 0.026
SYO-1, 10 µM | 0.6731 ± 0.0061
